Test results as given in patent US9534008B2, “Small molecule compounds that control plant- and insect-pathogenic nematodes” (California Institute of Technology, priority 2011, dated 2017).
Entries after “also recorded” stand apart in the source; their conditions may differ.

Key:
C. elegans [1] = test: Ascaroside function (Table 12), C. elegans; assay type: in vivo, Caenorhabditis elegans; design: key to Attract Females/Herm. / Promote Dauer Formation / Attract Males: A very strong result of affecting nematode behavior is designated in the table as “strong.”
Method: (§1) Various ascarosides and ascaroside blends were administered to various nematodes described below (Table 12). […] A very strong result of affecting nematode behavior is designated in the table as “strong.”

S. glaseri = test: Ascaroside function (Table 12), S. glaseri; assay type: in vivo
Method: as §1

[2] = test system: several of the tested nematode species; test: Retention assay, across species; assay type: in vivo; settings: 1 nM, 1 μM and 1 mM tested
Method: OP50 E. coli was grown on a standard 5 cm agar plate (made with standard Nematode Growth Medium). The bacterial lawn was 16 mm in diameter and was grown overnight at 20° C. before being used in trials. Two 4 mm spots (0.6 μL) were placed on opposite sides of the bacterial lawn (using a transparent template to guide spot placement), and several minutes elapsed for the liquid to settle in before placing nematodes down on the assay. Recording began immediately upon worm placement. 0.6 μL of the control was placed on one side of the lawn, and 0.6 μL of the experimental cue was placed on the other side of the lawn, changing the location of the cue throughout trials between left/right and top/bottom to avoid bias.
Nematodes were isolated by gender at the L4 stage the day before being used in trials as developed adults. Worms were evenly divided and placed at two points equidistant from the foci of the scoring region. Trials were recorded for 20 minutes, and frames were collected for analysis at 1 frame per second. Results were averaged from at least three different trials. For every nematode species in this study, a different total number of worms (using water in both scoring regions) was tested to determine the minimum number of worms necessary for consistent unbiased results over a 20 minute trial. The total number of worms used in the multiple species assays depended on that species' optimal parameters. 10 worms were used for P. redivivus males and females, 20 worms were used for C. elegans males and O. dolichuridae males, and 14 worms were used for S. glaseri males. The Automated Software was used to compare worm occupancy in each scoring region over time, and the Chemotaxis Index (Bargmann et al., Cell 74:515-27 (1993), which is hereby incorporated by reference in its entirety) was adapted to score preference or avoidance to each ascaroside.
A video camera attached to the microscope produced a digital video stream, which was then analyzed. The ratio of the time the average worm spent in each region of interest was calculated for every trial. For ease of implementation, all worms in a single experiment were assumed to be roughly the same size. Thus worm pixels were counted instead of whole worms, allowing fractions of a worm in the region of interest to be taken into account. It also eliminated the need for a shape-based worm identification algorithm, and allowed each frame to be analyzed independently. A band-pass filter was applied to each frame to eliminate the effect of uneven lighting and also accentuate the worms against the background. The worm was then identified after thresholding the filtered image. Throughout each experiment, the locations and sizes of the regions of interest were known. Through the filtering described above, it is known which pixels are occupied by worms and which ones are not. Thus, the ratio of worm-pixels to all pixels inside the region of interest can be calculated to produce the worm-occupancy ratio. This calculation was done for every frame, giving a plot output of worm-occupancy ratio vs. time for each region.

males = test: Bioassay of HPLC-purified peak; assay type: in vivo; settings: purified peak with retention time of 9.7 minutes
Method: A Thermo Finnigan LCQ Deca XP Max was used with electrospray ionization in positive ion mode in the 50-1000 AMU range. The Thermo Separation spectra HPLC system consisted of a P4000 quaternary pump, an AS 3000 auto sampler, and a UV 6000 diode array detector. The solvents were water with (a) 0.1% formic acid and (b) 90% acetonitrile-10% water with 10 mM ammonium formate. The column temperature was maintained at 60° C. and a solvent flow of 1.0 ml/min. The reversed phase column (PLRP-S Polymeric reversed phase column, 250×4.6 mmid, Varian Inc.) was eluted with a solvent composition starting with 90:10 (a,b) for 2 minutes, followed by a gradient to 5:95 in 20 minutes and an additional 5 minutes at 5:95. Ultraviolet absorption was monitored at 190 and 400 nm. Solvent flow between the ultraviolet detector and mass spectroscopy electrospray interface split 9:1 with a low-volume micro needle P450 splitter valve (Upchurch Scientific, Oak Harbor, Wash.), making it possible to obtain spectra of eluted compounds and simultaneously collect 90% of the injected material for bioassay. […] This was confirmed to be ascr#1 using NMR analysis.

Panagrellus redivivus = test: Ascaroside function (Table 12), Panagrellus redivivus; assay type: in vivo
Method: as §1

[3] = test system: C. elegans hermaphrodites; test: Measurement of locomotory parameters (automated worm-tracking system); assay type: in vivo
Method: Reversal frequency and velocity were measured using an automated worm-tracking system (Pungaliya et al., PNAS 106:7708-13 (2009); Srinivasan et al., Nature 454:1115-18 (2008), which are hereby incorporated by reference in their entirety).

AIA interneurons = test: Calcium imaging (G-CaMP), AIA; assay type: in vivo, C. elegans; settings: 1 μM icas#3
Excerpt: (§2) Transgenic lines that express the genetically encoded Ca^2+ sensor in ASK (kyEx2866) and AIA (kyEx2916) (Macosko et al., Nature 458:1171-75 (2009), which is hereby incorporated by reference in its entirety) were used for calcium imaging. Young adults or adult worms were inserted into an “Olfactory chip” microfluidic device (Chronis et al., Nat. Methods 4:727-31 (2007), which is hereby incorporated by reference in its entirety). Dilutions of icas#3 were done with S-basal buffer (with no cholesterol). As stock solutions of icas#3 contained small amounts of ethanol, equivalent amounts of ethanol were added to the S-basal control flow.
(§3) Imaging was conducted using an inverted Zeiss microscope equipped with an Andor camera. Exposure time for image acquisition was 300 milliseconds. Before imaging the ASK neuron, the worm was exposed to blue light for 3 minutes as ASK responds to the blue light itself. […] Movies were analyzed using custom-made Matlab scripts. The first peak of fluorescence immediately after exposure to buffer or icas#3 was chosen for calculating the average change in fluorescence upon exposure to either buffer or icas#3. The value for this maximum was then subtracted from the mean fluorescence during the 5 seconds before the delivery of icas#3/buffer (corresponding to the region between 5 to 10 seconds in FIG. 2D).

C. elegans [4] = test: Aggregation assay; assay type: in vivo
Method: Aggregation behavior of worms was measured using assays reported in de Bono & Bargmann, Cell 94:679-89 (1998), which is hereby incorporated by reference in its entirety. Aggregation assays were conducted on standard NGM plates. Plates containing indole ascarosides were made by adding the indole ascaroside stock solution to the NGM media before they were poured onto the plates. These plates were dried at room temperature for 2 to 3 days. Control plates were treated similarly, except that ethanol solutions instead of icas solutions were added to the plates, corresponding to the amount of ethanol introduced via the icas solutions. Final ethanol concentrations of the plates were below 0.1% for all conditions. After drying, both control plates and plates containing indole ascarosides were seeded with 150 μl of an overnight culture of E. coli OP50 using a micropipette, and were allowed to dry for 2 days at room temperature. For “low worm density” experiments, 20 worms were placed onto the lawn and left at 20° C. for 3 hours. For “high worm density” experiments, approximately 120 worms were placed onto the bacterial lawn and left at 20° C. for 3 hours. Aggregation behavior was quantified as the number of animals that were in touch with two or more animals at greater than 50% of their body length.

[5] = test system: C. elegans hermaphrodites and males; test: Spot attraction assay; assay type: in vivo
Method: The spot attraction assays were conducted according to a previously reported method (Pungaliya et al., PNAS 106:7708-13 (2009); Srinivasan et al., Nature 454:1115-18 (2008), which are hereby incorporated by reference in their entirety). For both C. elegans hermaphrodites and males, 50-60 worms were harvested daily at the fourth larval stage (L4) and stored segregatedly by sex at 20° C. overnight, to be used as young adults the following day. For the competition experiments, two conditions were used: 120 nM ascr#3 and 10 nM icas#3 (Condition 1), or 12 μM ascr#3 and 1 μM icas#3 (Condition 2) in water containing 10% ethanol. Aliquots were stored at −20° C. in 20 μL tubes. 10% ethanol in water was used as control.
Attraction assays with hbas#3 were conducted as previously reported (Srinivasan et al., Nature 454:1115-18 (2008); Pungaliya et al., Proc. Natl. Acad. Sci. U.S.A. 106:7708-13 (2009), which are hereby incorporated by reference in their entirety). For the attraction assays, 50-60 hermaphrodite worms were harvested daily at the early fourth larval stage (L4) and stored at 20° C. overnight to be used as young adults the following day. Hbas#3 was dissolved in water containing 10% ethanol. Aliquots were stored at −20° C. in 20 μL tubes. 10% ethanol in water was used as control.

ASK neurons = test: Calcium imaging (G-CaMP), ASK; assay type: in vivo, C. elegans; settings: 1 pM to 1 μM
Excerpt: as §2, §3

[6] = test system: C. elegans hermaphrodites; test: Quadrant chemotaxis assay; assay type: in vivo
Method: Chemotaxis to both non-indole and indole ascarosides was assessed on 10 cm four-quadrant petri plates (Wicks et al., Dev. Biol. 221:295-307 (2000), which is hereby incorporated by reference in its entirety). Each quadrant was separated from adjacent ones by plastic spacers (FIG. 1B). Pairs of opposite quadrants were filled with nematode growth medium (NGM) agar containing either indole ascarosides or non-indole ascarosides at different concentrations. Animals were washed gently in a S-basal buffer, placed in the center of a four-quadrant plate with ascarosides in alternating quadrants, and scored after 15 minutes and 30 minutes. A chemotaxis index was calculated as: (the number of animals on ascaroside quadrants minus the number of animals on buffer quadrants)/(total number of animals).
Chemotaxis to hbas#3 was assessed on 10 cm four-quadrant petri plates (Wicks et al., Dev. Biol. 221:295-307 (2000), which is hereby incorporated by reference in its entirety). Each quadrant was separated from adjacent ones by plastic spacers. Pairs of opposite quadrants were filled with nematode growth medium (NGM) agar containing different concentrations of hbas#3. Animals were washed gently in an S-basal buffer and placed in the center of a four-quadrant plate with ascarosides in alternating quadrants, and scored after 15 minutes and 30 minutes. A chemotaxis index was calculated as: (the number of animals on ascaroside quadrants minus the number of animals on buffer quadrants)/(total number of animals).

C[C@H](CCCCC(=O)O)O[C@@H]1O[C@@H](C)[C@H](O)C[C@H]1O [ascr#1]
Attract Males (C. elegans [1]): ascr#1 | Promote Dauer Formation (C. elegans [1]): ascr#1 | Attract Males (S. glaseri): ascr#1 | preference for areas conditioned by ascaroside [2]: preferred | activity to males in the bioassay (males): active | Attract Males (Panagrellus redivivus): ascr#1

C[C@H](CCCC/C=C/C(=O)O)O[C@@H]1O[C@@H](C)[C@H](OC(=O)c2c[nH]c3ccccc23)C[C@H]1O [icas#3]
Attract Females/Herm. (C. elegans [1]): ([strong]) | Attract Males (C. elegans [1]): ([strong]) | worm velocity ([3]; 1-10 pM icas#3): not significantly reduced | mean stopped duration ([3]; aggregation-inducing concentrations, N2 hermaphrodites): strongly increase | forward velocity of ASK-ablated hermaphrodites ([3]; in vivo): do not display reduced forward velocity | reversal frequency of ASK-ablated hermaphrodites ([3]; in vivo): does not increase; also recorded: neither increased reversal frequency | G-CaMP fluorescence in AIA interneurons (AIA interneurons): induces G-CaMP fluorescence signals; also recorded: significantly increased; also recorded: significant changes | aggregation of daf-22 hermaphrodites versus N2 (C. elegans [4]; 1 pM icas#3, low worm density): less aggregation than N2 worms | aggregation of CB4856 (C. elegans [4]; 1 nM icas#3, low worm density): not significantly different from the control | aggregation of npr-1(ad609) hermaphrodites (C. elegans [4]; entire tested concentration range, without drop off, low worm density): increased aggregation | active concentration window (hermaphrodite attraction and aggregation) (C. elegans [4]; in vivo): fM-pM; also recorded: femtomolar to low picomolar | concentration giving very strong increase in aggregation (as low as) (C. elegans [4]; low worm density (20 worms per plate), solitary and social hermaphrodites): ≤ 10 fM | aggregation of ASK-ablated hermaphrodites (C. elegans [4]; low worm density, any of the tested concentrations): do not aggregate; also recorded: did not aggregate | concentration of maximal aggregation, social strain CB4856 (C. elegans [4]; low worm density, bell-shaped response curve): 1 pM | aggregation of him-5 males (C. elegans [4]; plates containing 100 fM or 100 pM of icas#3): significantly increased | attraction after ablation of the RMG interneuron ([5]; N2 (wild-type) and ncs-1::gfp hermaphrodites): does not affect; also recorded: did not affect | attraction after ablation of ASK sensory neurons ([5]; hermaphrodites): near complete loss of attraction | attraction of both C. elegans sexes ([5]; high concentrations, 1 μmol, N2 hermaphrodites and him-5 males): attractive; also recorded: attracted | attraction of AIA-deficient worms ([5]; in vivo): did not show any attraction | attraction of daf-22 hermaphrodites ([5]; in vivo): attracted; also recorded: as strongly as N2 worms | attraction of social wild-type (RC301, CB4856) and npr-1(ad609) hermaphrodites ([5]; in vivo): attracted; also recorded: strongly attracted | attraction of hermaphrodites ([5]; low concentrations, N2 hermaphrodites): strongly attractive | Ca2+ transients in ASK neurons (ASK neurons): no detection | chemotaxis of hermaphrodites from all tested strains ([6]; 1 pM icas#3, after 15 minutes): attracted | chemotaxis of hermaphrodites from all tested strains ([6]; 1 μM icas#3, after 30 minutes): attracted | attraction of social wild-type (RC301, CB4856) and npr-1(ad609) hermaphrodites ([6]; in vivo): strongly attracted | response of daf-22 hermaphrodites ([6]; in vivo): as strongly as N2 worms | concentration resulting in strong attraction of hermaphrodites (as low as) ([6]; presence and absence of food): ≤ 1 pM
